Measurements: PMC11671526, “β-caryophyllene sensitizes hepatocellular carcinoma cells to chemotherapeutics and inhibits cell malignancy through targeting MAPK signaling pathway” (Frontiers in Pharmacology, 2024)
Read-outs that look alike come from different tables or passages of the source.

Legend:
Format in all cases: cell-based, human
HepG2 cells [1] = assay: Annexin V-FITC/PI cell apoptosis assay (flow cytometry); conditions: HepG2, 48 h; BCP 150 µM, DOXL 0.2 µM, DOXH 1.5 µM, DDPL 5 µM, DDPH 30 µM
Description: (§1) The cell apoptosis assay was performed as previously described ([Zhong et al., 2019]; [Farooq et al., 2023]). […] Ltd., Nanjing, China). The cells were analyzed using flow cytometer (BECKMAN COULTER, cytoFLEX, United States).

SMMC-7721 cells [2] = assay: as above; conditions: SMMC-7721, 48 h; BCP 150 µM, DOXL 0.2 µM, DOXH 1.5 µM, DDPL 5 µM, DDPH 30 µM
Description: as §1

HL-7702 cells = assay: as above; conditions: HL-7702, 48 h, BCP 150 µM, DOXL 0.2 µM, DOXH 1.5 µM, DDPL 5 µM, DDPH 30 µM
Description: as §1

HepG2 cells [3] = assay: CCK8 cell viability assay; conditions: for IC50: HepG2, 48 h, individual treatment, read-out: IC50 (half maximal inhibitory concentration); for effect of combination with BCP (isobologram analysis): HepG2, BCP 25-150 μM combined with DOX or DDP
Description: (§2) Cell viability assay using the CCK8 reagent (Bimake, Shanghai, China) was conducted according to the manufacturer’s instructions. The cell proliferation data were used to calculate the cell viability. Briefly, HepG2, SMMC-7721, and HL-7702 cells with a density of 5 × 10^3 cells/well were seeded into each well of 96-well plates and incubated overnight. […] After 48 h, 10 µL of CCK8 reagent was added to each well, followed by 2 h incubation at 37°C and measurement of absorbance at 450 nm using a microplate reader (Molecular Devices, LLC.). […] The effects of the combinatorial inhibition were visualized by isobologram analyses ([Tallarida, 2001]). […] A line was drawn to link the two IC50 points. […] The dots above, on, or below the line indicate the “antagonistic,” “additive” and “synergistic” effects, respectively. The same method was used to obtain the CI value for the cotreatment of BCP and DDP.

SMMC-7721 cells [4] = assay: CCK8 cell viability assay; conditions: for IC50: SMMC-7721, 48 h, individual treatment, read-out: IC50 (half maximal inhibitory concentration); for effect of combination with BCP (isobologram analysis): SMMC-7721, BCP 25-150 μM combined with DOX or DDP
Description: as §2

[5] = test system: HL-7702 normal liver cells; assay: CCK8 cell viability assay; conditions: for IC50: HL-7702, 48 h, individual treatment, read-out: IC50 (half maximal inhibitory concentration); for effect of combination with BCP (isobologram analysis): HL-7702, BCP 25-150 μM combined with DOX or DDP
Description: as §2

[6] = HepG2, cotreatment with 25 μM BCP
[7] = HepG2, cotreatment with 50 μM BCP
[8] = HepG2, cotreatment with 75 μM BCP
[9] = HepG2, cotreatment with 100 μM BCP
[10] = HepG2, cotreatment with 150 μM BCP
[11] = SMMC-7721, cotreatment with 25 μM BCP
[12] = SMMC-7721, cotreatment with 50 μM BCP
[13] = SMMC-7721, cotreatment with 75 μM BCP
[14] = SMMC-7721, cotreatment with 100 μM BCP
[15] = SMMC-7721, cotreatment with 150 μM BCP

## N.N.[Cl][Pt][Cl] [DDP, cisplatin]
HepG2 cells [1]
  apoptotic rate: 11.40% ± 0.52%
SMMC-7721 cells [2]
  apoptotic rate: 7.67% ± 0.46%
HL-7702 cells; listed as DDPH
  apoptotic rate: 28.52% ± 1%
HL-7702 cells; listed as DDPL
  apoptotic rate: 17.86% ± 0.69%
HepG2 cells [3]
  IC50: 27.4 ± 2.59 µM
  effect of combination with BCP (isobologram analysis): synergistic
HepG2 cells [3]; [6]
  combination index (CI): 0.74
HepG2 cells [3]; [7]
  combination index (CI): 0.71
HepG2 cells [3]; [8]
  combination index (CI): 0.66
HepG2 cells [3]; [9]
  combination index (CI): 0.68
HepG2 cells [3]; [10]
  combination index (CI): 0.88
HepG2 cells [3]; HepG2, cotreatment with 150 μM BCP vs DOX or DDP alone
  fold lower IC50 in cotreatment than in treatment alone: over 9 fold
SMMC-7721 cells [4]
  IC50: 33.7 ± 1.43 µM
  effect of combination with BCP (isobologram analysis): synergistic
SMMC-7721 cells [4]; [11]
  combination index (CI): 0.59
SMMC-7721 cells [4]; [12]
  combination index (CI): 0.57
SMMC-7721 cells [4]; [13]
  combination index (CI): 0.52
SMMC-7721 cells [4]; [14]
  combination index (CI): 0.51
SMMC-7721 cells [4]; [15]
  combination index (CI): 0.58
SMMC-7721 cells [4]; SMMC-7721, cotreatment with 150 μM BCP vs DOX or DDP alone
  fold lower IC50 in cotreatment than in treatment alone: over 9 fold
[5]
  IC50: 11.5 ± 0.82 µM
  effect of combination with BCP (isobologram analysis): additive
[5]; HL-7702, cotreatment with 25 μM BCP
  combination index (CI): 1.04
[5]; HL-7702, cotreatment with 50 μM BCP
  combination index (CI): 0.95
[5]; HL-7702, cotreatment with 75 μM BCP
  combination index (CI): 1.01
[5]; HL-7702, cotreatment with 100 μM BCP
  combination index (CI): 0.89
[5]; HL-7702, cotreatment with 150 μM BCP
  combination index (CI): 0.92
[5]; HL-7702, cotreatment with 150 μM BCP vs DOX or DDP alone
  fold reduction of IC50 in cotreatment from individual treatment: less than 1.5 fold

## COc1cccc2c1C(=O)c1c(O)c3c(c(O)c1C2=O)C[C@@](O)(C(=O)CO)C[C@@H]3O[C@H]1C[C@H](N)[C@H](O)[C@H](C)O1 [DOX, doxorubicin]
HepG2 cells [1]
  apoptotic rate: 13.40% ± 0.65%
SMMC-7721 cells [2]
  apoptotic rate: 8.74% ± 1.32%
HL-7702 cells; listed as DOXH
  apoptotic rate: 33.83% ± 1.27%
HL-7702 cells; listed as DOXL
  apoptotic rate: 13.04% ± 0.57%
HepG2 cells [3]
  effect of combination with BCP (isobologram analysis): synergistic
HepG2 cells [3]; [6]
  combination index (CI): 0.53
HepG2 cells [3]; [7]
  combination index (CI): 0.58
HepG2 cells [3]; [8]
  combination index (CI): 0.56
HepG2 cells [3]; [9]
  combination index (CI): 0.65
HepG2 cells [3]; [10]
  combination index (CI): 0.85
HepG2 cells [3]; Homo sapiens
  IC50: 1.99 ± 0.2 µM
SMMC-7721 cells [4]; Homo sapiens
  IC50: 1.76 ± 0.13 µM
SMMC-7721 cells [4]
  effect of combination with BCP (isobologram analysis): synergistic
SMMC-7721 cells [4]; [11]
  combination index (CI): 0.48
SMMC-7721 cells [4]; [12]
  combination index (CI): 0.53
SMMC-7721 cells [4]; [13]
  combination index (CI): 0.50
SMMC-7721 cells [4]; [14]
  combination index (CI): 0.55
SMMC-7721 cells [4]; [15]
  combination index (CI): 0.65
[5]
  effect of combination with BCP (isobologram analysis): additive
[5]; Homo sapiens, L02
  IC50: 0.82 ± 0.09 µM
